# Laboratory results published in patent publication US11219614B2, “Combination cancer therapy with pentaaza macrocyclic ring complex and ascorbate compound” (Galera Labs, LLC, priority 2016, dated 2022).
# System: Non-small cell lung cancer cells (H1299)
# Experiment: clonogenic cell survival assay, H1299
# Type: cell-based
# Protocol: (§1) FIG. 1 is a plot showing the surviving fraction of H1299 cells for increasing amounts of ascorbate, as determined by a clonogenic cell survival assay used to determine the effects of the compound alone and in combination with a pentaaza macrocyclic ring complex (GC4419). Non-small cell lung cancer cells (H1299) were exponentially grown in culture for 48 hours. The cells were then treated with 5-20 μM GC4419 for 24 hours and ascorbate (Asc) for one hour, followed immediately by clonogenic assay. The cells were trypsinized, counted, replated at varying lower densities and incubated. Plates were stained and counted for clonogenic survival assays.
# as §1, with “FIG. 10” for “FIG. 1”, “with either the” for “with a”, “complex (GC4419) or the pentaaza macrocyclic ring complex (GC4401).” for “complex (GC4419).”, “with ascorbate (Asc) at the concentrations shown for one hour and either 10” for “with 5-20”, “GC4419 or 10 μM GC4401” for “GC4419”, “24 hours. After 24 hours, the” for “24 hours and ascorbate (Asc) for one hour, followed immediately by clonogenic assay. The”
# FIG. 11 is a graph showing the surviving fraction of H1299 cells treated with ascorbate and combinations including ascorbate and/or auranofin. […] The cells were then trypsinized, counted, replated at varying lower densities and incubated. Plates were stained and counted for clonogenic survival assays.
# (§2) The effect of ascorbate was tested in a clonogenic cell survival assay to determine the effects of the compound alone and in combination with a pentaaza macrocyclic ring complex (GC4419). […] The cells were trypsinized, counted, replated at varying lower densities and incubated. Plates were stained and counted for clonogenic survival assays.
# as §2, with “with the” for “with a”, “complex (GC4419) and the pentaaza macrocyclic ring complex (GC4401).” for “complex (GC4419).”
# The effects of ascorbate in combination with a pentaaza macrocyclic ring complex (GC4419) was tested in a clonogenic cell survival assay to determine the effects of the combination alone and when paired with the thioredoxin reductase inhibitor auranofin. […] The cells were then trypsinized, counted, replated at varying lower densities and incubated. […]
smiles,measurement,setting,value
[Cl][Mn][Cl].c1cc2nc(c1)CN[C@H]1CCCC[C@@H]1NCCN[C@H]1CCCC[C@@H]1NC2 [GC4419],cell killing (clonogenic survival),"1 μM auranofin 24 h + 10 μM GC4419 24 h + 10 pmol/cell ascorbate 1 h, compared to control, monotherapies and pairwise combinations, FIG. 11",also resulted in significant enhancements in cell killing
same,cell killing (clonogenic survival),"10 μM GC4419 24 h + 10 pmol/cell ascorbate 1 h, compared to control and monotherapies, FIG. 11",significant enhancements in cell killing
same,cell killing (clonogenic survival),"ascorbate 1 h in combination with 5 μM or 20 μM GC4419 24 h, compared to ascorbate or GC4419 monotherapies, FIG. 1",significant enhancements in cell killing
same,cell killing (clonogenic survival),"ascorbate 1 h in combination with 10 μM complex 24 h, compared to control, FIG. 10",significant enhancements in cell killing
